Source: patent US12419896B2, “Compositions and dosage forms for oral delivery” (RHODES TECHNOLOGIES, priority 2018, dated 2025)

What was measured:
[1] = versus Δ^9-THC; oxidation to cannabinol, shelf life; cited from earlier work
[2] = most pharmacological tests; Ophthalmic Res. (1992) 24:142-149; cited from earlier work
[3] = Miscibility of sesame oil in 40% IPA/HFA 134a; format: physicochemical; conditions: based on 10% w/v dronabinol in sesame oil
Protocol: In some embodiments, formulations deliver between 0.25 mg and 2 mg dose of dronabinol after application. Table 4 details the % w/w dronabinol required in the canister to achieve such doses for different actuator volumes available ([…]). The miscibility of sesame oil in 40% IPA/HFA 134a has been determined to be 7.2% w/w, equivalent to 0.8% dronabinol, based on 10% w/v dronabinol in sesame oil. Therefore, the dose of dronabinol (mg) produced from each of the difference actuator volumes based on a level of 0.8% w/w dronabinol in canisters has been presented in Table 5.

[4] = cited from earlier work

CCCCCc1cc(O)c2c(c1)OC(C)(C)[C@@H]1CC=C(C)C[C@@H]21 (relative stereo) [Δ^8-THC, (−)-trans-Δ^8-tetrahydrocannabinol]
Stability compared with Δ^9-THC [1]: more stable
Potency compared with Δ^9-THC [2]: less potent

CCCCCc1cc(O)c2c(c1)OC(C)(C)C1CCC(C)=CC21 (single isomer, unassigned; (-)) [dronabinol, (−)-trans-Δ^9-tetrahydrocannabinol]
Level of dronabinol equivalent to the sesame oil miscibility limit [3]: 0.8%
Solubility in water [4]: insoluble
